Measured values as given in PMC11232109, “Synthesis, anticancer evaluation of novel hybrid pyrazole-based chalcones, molecular docking, DNA fragmentation, and gene expression: in vitro studies” (RSC Advances, 2024).
“And” between values parts separate entries of the source, which are not always exact repeats. Identical values can stand only once. Marks after values point to notes of the source that are not given here.

Key:
Type in all cases: cell-based, human
Bcl-2 = experiment: qPCR gene expression of Bcl-2 in MCF7 cells; conditions: treatment with IC50 conc., negative control = 1
Experimental: (§1) Total RNA was isolated from breast and pancreatic cancer cell lines according to the manufacturer's protocol using RNeasy Mini Kit (Qiagen) supplemented with the DNaseI (Qiagen) digestion step. To digest DNA residues, the isolated total RNA was treated with one unit of RQ1 RNAse-free DNAse (Invitrogen), re-suspended in DEPC-treated water, and quantified using a spectrophotometer at 260 nm. The purity of total RNA was assessed by the 260/280 nm ratio, which was between 1.8 and 2.1. Moreover, RNA integrity was assured by ethidium bromide-stain analysis of 28S and 18S bands by formaldehyde-containing agarose gel electrophoresis. Complete poly(A)+ RNA isolated from breast and pancreatic cell lines was reverse-transcribed into cDNA in a total volume of 20 μl using the RevertAidTM First Strand cDNA Synthesis Kit (Fermentas). […] Subsequently, the reaction tubes containing RT preparations were flash-cooled in an ice chamber until used for cDNA amplification using a quantitative real-time polymerase chain reaction (qRT-PCR).
(§2) Determination of the breast and pancreatic cell line cDNA copy number was carried out using the StepOne™ Real-Time PCR system from Applied Biosystems (Thermo Fisher Scientific). […] The relative quantification of the target to the reference was performed using the 2^−ΔΔCT method (Yang et al., 2017).[51]

CDK4 = experiment: qPCR gene expression of CDK4 in MCF7 cells; conditions: treatment with IC50 conc., negative control = 1
Experimental: as §1, §2

P21 = experiment: qPCR gene expression of P21 in MCF7 cells; conditions: treatment with IC50 conc., negative control = 1
Experimental: as §1, §2

P53 = experiment: qPCR gene expression of P53 in PACA2 cells; conditions: treatment with IC50 conc., negative control = 1
Experimental: as §1, §2

BID = experiment: qPCR gene expression of BID in PACA2 cells; conditions: treatment with IC50 conc., negative control = 1
Experimental: as §1, §2

CCND1 = experiment: qPCR gene expression of CCND1 in PACA2 cells; conditions: treatment with IC50 conc., negative control = 1
Experimental: as §1, §2

MCF7 cell lines = experiment: DNA fragmentation assay, MCF7; conditions: for DNA fragmentation, Inhibition (%): MCF7; for DNA fragmentation (%) M ± SEM: MCF7, 24 hours of exposure, −ve control 8.6 ± 0.36; for DNA fragmentation, Change: MCF7, change versus −ve control
Experimental: (§3) The DNA fragmentation assay in breast and pancreatic cancer cell lines was performed in accordance with the method of Helmy et al., 2022 (ref. [15]) with some modifications. Briefly, after 24 hours of exposure of breast and pancreatic cancer cell lines to the tested chalcone compounds in different Petri dishes (60 × 15 mm, Greiner), the cells were trypsinized, suspended, homogenized in 1 ml of medium, and centrifuged (10 min at 800 rpm). Low-molecular-weight genomic DNA was extracted as described in Yawata et al., 1998.[52] Approximately 1 × 10^6 cells were plated and treated with the tested substances in various treatments. All the cells (including floating cells) were harvested by trypsinization and washed with Dulbecco's phosphate-buffered saline. Cells were lysed with the lysis buffer containing 10 mM Tris (pH 7.4), 150 mM NaCl, 5 mM EDTA, and 0.5% Triton X-100 for 30 minutes on ice. Lysates were vortexed and cleared by centrifugation at 10 000 g for 20 min. Fragmented DNA in the supernatant was extracted with an equal volume of a neutral phenol/chloroform/isoamyl alcohol mixture (25 : 24 : 1) and analyzed electrophoretically on 2% agarose gels containing 0.1 μg ml^−1 ethidium bromide.

PACA2 cell lines = experiment: DNA fragmentation assay, PACA2; conditions: for DNA fragmentation, Inhibition (%): PACA2; for DNA fragmentation (%) M ± SEM: PACA2, 24 hours of exposure, −ve control 8.3 ± 0.31; for DNA fragmentation, Change: PACA2, change versus −ve control
Experimental: as §3

Paca2 = experiment: Comet assay (DNA damage), pancreatic cancer cell line; conditions: for DNA damaged cells% (mean ± SEM): Paca2, comet assay, −ve 10.12 ± 0.85; for No. of cells, Class 0 / No. of cells, Class 1 / No. of cells, Class 2 / No. of cells, Class 3: Paca2, of 405 cells; for No. of cells, Class 0: class 0 = no tail; for No. of cells, Class 1: class 1 = tail length < diameter of nucleus; for No. of cells, Class 2: class 2 = tail length between 1× and 2× the diameter of nucleus; for No. of cells, Class 3: class 3 = tail length > 2× the diameter of nucleus
Experimental: Olive et al. (1990) used pancreatic and breast cancer cell lines to measure the DNA damage using the comet test.[53] Approximately 1.5 × 10^4 cells were imbedded in 0.75% low-gelling-temperature agarose after trypsin treatment to generate a single-cell suspension, which was then quickly pipetted onto a pre-coated microscope slide. Cell samples were lysed in 0.5% SDS, 30 mM EDTA, pH 8.0, for four hours at 50 °C. Samples were electrophoresed for 25 minutes at 0.6 V cm^−1 after being rinsed overnight at room temperature in Tris/borate/EDTA buffer, pH 8.0. Propidium iodide was then added for staining. A fluorescent microscope equipped with a CCD camera was used to observe the slides, and 150 unique comet photos from each sample were examined to determine the tail moment, DNA content, and percentage of DNA in the tail. To find the fraction of cells with DNA damage that resemble comets in each sample, around 100 cells were analyzed. Based on perceived comet tail length migration and relative proportion of DNA in the nucleus, the non-overlapping cells were randomly chosen and visually assigned a score on an arbitrary scale of 0–3. Class 0 = no detectable DNA damage and no tail; class 1 = tail with a length less than the nucleus diameter; class 2 = tail with length between 1× and 2× the nuclear diameter; and class 3 = tail longer than 2× the nucleus diameter.[54]

SMILES: COc1cccc2c1C(=O)c1c(O)c3c(c(O)c1C2=O)C[C@@](O)(C(=O)CO)C[C@@H]3O[C@H]1C[C@H](N)[C@H](O)[C@H](C)O1 [Doxorubicin, reference compound]
- Gene expression Bcl-2 (Bcl-2): 0.56 fold change/GAPDH
- Gene expression CDK4 (CDK4): 0.39 fold change/GAPDH
- Gene expression P21 (P21): 4.18 fold change/GAPDH
- Gene expression P53 (P53): 2.21 fold change/GAPDH
- Gene expression BID (BID): 0.69 fold change/GAPDH
- Gene expression CCND1 (CCND1): 0.79 fold change/GAPDH
- DNA fragmentation, Inhibition (%) (MCF7 cell lines): 23.67%
- DNA fragmentation (%) M ± SEM (MCF7 cell lines): 25.2 ± 0.65%
- DNA fragmentation (%) M ± SEM (MCF7 cell lines; listed as MCF7 +ve control): 25.2 ± 0.65^a %
- DNA fragmentation, Change (MCF7 cell lines): 16.6
- DNA fragmentation, Inhibition (%) (PACA2 cell lines): 17.94%
- DNA fragmentation (%) M ± SEM (PACA2 cell lines): 21.5 ± 0.46%
- DNA fragmentation (%) M ± SEM (PACA2 cell lines; listed as PACA (+ve) control): 21.5 ± 0.46^a %
- DNA fragmentation, Change (PACA2 cell lines): 13.2
- DNA damaged cells% (mean ± SEM) (Paca2; listed as Dox): 26.17 ± 1.38% and 26.17 ± 1.38^a %
- No. of cells, Class 0 (Paca2): 299
- No. of cells, Class 1 (Paca2): 38
- No. of cells, Class 2 (Paca2): 32
- No. of cells, Class 3 (Paca2): 36

SMILES: Cc1nn(-c2ccccc2)c(C=CC(=O)c2c(-c3cccs3)nn(-c3ccc([N+](=O)[O-])cc3)c2C)c1Cl [Compound 7d, 3-(4-Chloro-3-methyl-1-phenyl-1H-pyrazol-5-yl)-1-(5-methyl-1-(4-nitrophenyl)-3-(thiophen-2-yl)-1H-pyrazol-4-yl)prop-2-en-1-one]
- Gene expression Bcl-2 (Bcl-2): 0.64 fold change/GAPDH
- Gene expression CDK4 (CDK4): 0.43 fold change/GAPDH
- Gene expression P21 (P21): 3.95 fold change/GAPDH
- DNA fragmentation, Inhibition (%) (MCF7 cell lines): 20.48%
- DNA fragmentation (%) M ± SEM (MCF7 cell lines): 21.8 ± 0.94% and 21.8 ± 0.94^a %
- DNA fragmentation, Change (MCF7 cell lines): 13.2

SMILES: Cc1c(C(=O)C=Cc2nn(-c3ccccc3)cc2-c2ccc([N+](=O)[O-])cc2)c(-c2cccs2)nn1-c1ccc([N+](=O)[O-])cc1 [Compound 9e, 1-(5-Methyl-1-(4-nitrophenyl)-3-(thiophen-2-yl)-1H-pyrazol-4-yl)-3-(4-(4-nitrophenyl)-1-phenyl-1H-pyrazol-3-yl)prop-2-en-1-one]
- Gene expression P53 (P53): 3.89 fold change/GAPDH
- Gene expression BID (BID): 0.48 fold change/GAPDH
- Gene expression CCND1 (CCND1): 0.64 fold change/GAPDH
- DNA fragmentation, Inhibition (%) (PACA2 cell lines): 24.45%
- DNA fragmentation (%) M ± SEM (PACA2 cell lines): 24.2 ± 0.57% and 24.2 ± 0.57^a %
- DNA fragmentation, Change (PACA2 cell lines): 15.9
- DNA damaged cells% (mean ± SEM) (Paca2): 28.40 ± 1.04% and 28.40 ± 1.04^a %
- No. of cells, Comets (Paca2; Paca2, of 405 cells analyzed): 115
- No. of cells, Class 0 (Paca2): 290
- No. of cells, Class 1 (Paca2): 35
- No. of cells, Class 2 (Paca2): 37
- No. of cells, Class 3 (Paca2): 43
